Test results: patent publication US10300052B2, “Methods for increasing CFTR activity” (THE UAB RESEARCH FOUNDATION, priority 2012, dated 2019)

Test system: porcine trachea CFTR−/−
Test: μOCT imaging of airway epithelial function in porcine trachea, CFTR-/- animals
Conditions: sequential ivacaftor 10 μM, forskolin 100 nM, acetylcholine 100 μM in bath, 37° C. (FIG. 7G)
Text: FIGS. 7A-7H show the effects of CFTR activators on airway epithelial function in intact porcine trachea by μOCT. FIGS. 7A-7B show representative μOCT images for a CFTR−/− (FIG. 7A) and CFTR+/+ (FIG. 7B) animal. FIGS. 7C-7F, respectively, show ASL depth (FIG. 7C), PCL depth (FIG. 7D), CBF (FIG. 7E) and MCT (FIG. 7F) measurements derived from μOCT images from CFTR−/− and CFTR+/+ animals. FIGS. 7G and 7H show the response of epithelial functional parameters, namely ASL depth and MCT in CFTR−/− (FIG. 7G) and CFTR+/+(FIG. 7H) animals in response to sequential pharmacologic intervention by ivacaftor (10 μM), forskolin (100 nM) and acetylcholine (100 μM).
To further investigate the role of CFTR activators in modulating airway epithelial cell function, CFTR activators were studied in combination with porcine trachea. In this example, porcine trachea from animals having a mutated CFTR (CFTR (−/−) and from animals having a WT-CFTR (CFTR+/+) were evaluated for ASL depth, PCL depth, CBF and MCT. The results are shown in FIGS. 7A-7H.
FIGS. 7G and 7H show the response of epithelial functional parameters, namely ASL depth, CBF and MCT in CFTR−/− and CFTR+/+ animals in response to sequential pharmacologic intervention by ivacaftor (10 μM), forskolin (100 nM) and acetylcholine (100 μM); in this experiment, acetylcholine served as a positive control to induce glandular extrusion in CF tissue). In these experiments, agonists were added to the bath solution and all experiments were conducted under physiological conditions (37° C. and 100% humidity). […] In contrast to FIG. 7G, ASL depth, CBF and MCT were all increased in response to ivacaftor treatment in CFTR+/+ animals, consistent with the results described above for human tissue.
Normal piglet tracheas were obtained from Exemplar Genetics (Sioux Center, Iowa). Tissue were dissected from one-day-old piglets and shipped on wet ice in DMEM. A modified protocol based on airway tissue handling and preparation methods developed by Ballard et al. (Am J Physiol Lung Cell Mol Physiol 298: L270-276, 2010) was employed. Tracheas were immersed in 80 mL Ringer bicarbonate solution (KRB) baths at room temperature and slowly warmed to 37° C. After four hours of pretreatment, the tracheas were removed from the KRB. Accessible mucus and liquid were aspirated from the airway lumens and the tracheal ends were cannulated so that the serosal surface was bathed in KRB [29] without contacting the mucosal surface, as previously described (Ballard et al., Am J Physiol Lung Cell Mol Physiol 298: L270-276, 2010; Martens, et al., Am J Physiol Lung Cell Mol Physiol 301: L236-246, 2011). Tracheas were allowed to equilibrate in KRB bubbled with 95% 02 and 5% CO2 at 37° C. and the luminal side exposed to conditioned air at 100% humidity for 2 hours prior to mOCT imaging (Sleigh et al., Comp Biochem Physiol A Comp Physiol 94: 359-364, 1989).
The μOCT system is a spectral-domain OCT implementation with several improvements to standard OCT that yield high resolution in both lateral and axial directions. The general layout and axial resolution characterization have been described (Liu et al., PLOSOne, 8(1), E54473-2013). A super-continuum source (Fianium SC450) provides the high-bandwidth, short coherence length light necessary for high axial resolution ([…]). A typical OCT system includes an interferometer with the reference and sample arms intersecting at a beamsplitter. The beamsplitter is replaced in μOCT with a 45 degree rod mirror, which apodizes the sample beam by introducing a circular obscuration in the center to achieve a balance of good lateral resolution (2 μm) and long depth of focus (0.2 mm). Custom software is employed to control the galvanometer scanning motors while acquiring spectral data from the line camera. […]

CC(C)(C)c1cc(C(C)(C)C)c(NC(=O)c2c[nH]c3ccccc3c2=O)cc1O [ivacaftor]
no response: ASL depth response | CBF response | MCT response
